A word on the inhibition: it is the change of the read-out against control, counted positive when it falls. By IC50 is commonly meant the point on the concentration scale where inhibition reaches its midpoint.

A short description of assay [1]: Ferric-reducing antioxidant power (FRAP) assay. Particulars: Trolox equivalents. The procedure: (§1) The ferric-reducing antioxidant power (FRAP) assay was carried out according to a previously described method. The cupric-reducing antioxidant capacity (CUPRAC) assay was performed according to literature. Results are expressed as mmoles Trolox equivalents/kg PEE. Catechin was used as a positive control in both assays.

Assay [2] in a line: Cupric-reducing antioxidant capacity (CUPRAC) assay. Particulars: Trolox equivalents. As to the method:
as §1

A short description of a further assay: DPPH discoloration assay. The procedure:
(§2) The scavenging capacity of the G. decorticans PEEs was evaluated against the free radicals DPPH and superoxide anion. The discoloration of the DPPH radical was carried out according to literature. The scavenging of the superoxide anion was evaluated following a previously described method. Results are presented as the amount of extract that is able to scavenge 50% of the radicals (SC50, μg PEE/mL).
(Loss of DPPH colour is used to gauge radical scavenging.)

A short description of assay [3]: Scavenging of superoxide anion generated by xanthine oxidase. Type of assay: biochemical. The procedure: The superoxide anion generated by xanthine oxidase can be scavenged by polyphenols. In this assay, the flavonol catechin was used as a positive control, showing a SC50 of 8.7 ± 0.1 μg/mL. All G. decorticans fruit PEEs were able to scavenge the superoxide anion, with SC50 values between 14.5–44.2 μg/mL, with the exception of the sample from El Transito II that only scavenged 45.1% the radical at 50 μg/mL.
as §2

The next assay concerns the target T1, COX-1 (Ovis aries, UniProt P05979).
T1 construct: purchased Cayman Chemical 560131
T1 sequence (P05979 25-600): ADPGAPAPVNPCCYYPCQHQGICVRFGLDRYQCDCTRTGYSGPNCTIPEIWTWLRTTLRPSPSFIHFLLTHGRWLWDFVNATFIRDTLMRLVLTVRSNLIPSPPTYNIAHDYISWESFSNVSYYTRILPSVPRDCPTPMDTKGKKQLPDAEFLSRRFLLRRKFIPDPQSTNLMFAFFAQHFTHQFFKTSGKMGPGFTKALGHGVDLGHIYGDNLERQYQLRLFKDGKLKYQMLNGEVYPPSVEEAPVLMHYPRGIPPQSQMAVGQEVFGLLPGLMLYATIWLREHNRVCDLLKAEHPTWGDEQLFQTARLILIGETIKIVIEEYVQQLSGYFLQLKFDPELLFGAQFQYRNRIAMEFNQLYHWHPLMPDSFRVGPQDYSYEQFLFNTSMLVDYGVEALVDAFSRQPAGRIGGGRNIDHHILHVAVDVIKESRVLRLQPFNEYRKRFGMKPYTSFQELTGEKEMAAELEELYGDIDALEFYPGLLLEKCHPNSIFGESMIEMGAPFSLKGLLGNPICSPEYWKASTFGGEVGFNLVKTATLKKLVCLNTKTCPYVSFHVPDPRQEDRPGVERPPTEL
The assay can be described thus: Cyclooxygenase inhibition, commercial kit (COX-1). Particulars: at 50 μg/mL. The class given is biochemical. The procedure: COX inhibitory activity was determined using a commercial kit (560131, Cayman Chemical, Ann Arbor, MI, USA). Enzyme and samples (50 μg PEE/mL) were pre-incubated during 10 min and then arachidonic acid was added. The reaction was conducted for exactly 2 min at 37 °C and halted in boiling water for 5 min. […] Results were expressed as a percentage of inhibition of PGF2α production. The commercial anti-inflammatory compound nimesulide was included as the reference compound [4].

The next assay concerns the target T2, COX-2 (Homo sapiens, UniProt P35354).
T2 construct: purchased Cayman Chemical 560131
T2 sequence (P35354 18-604): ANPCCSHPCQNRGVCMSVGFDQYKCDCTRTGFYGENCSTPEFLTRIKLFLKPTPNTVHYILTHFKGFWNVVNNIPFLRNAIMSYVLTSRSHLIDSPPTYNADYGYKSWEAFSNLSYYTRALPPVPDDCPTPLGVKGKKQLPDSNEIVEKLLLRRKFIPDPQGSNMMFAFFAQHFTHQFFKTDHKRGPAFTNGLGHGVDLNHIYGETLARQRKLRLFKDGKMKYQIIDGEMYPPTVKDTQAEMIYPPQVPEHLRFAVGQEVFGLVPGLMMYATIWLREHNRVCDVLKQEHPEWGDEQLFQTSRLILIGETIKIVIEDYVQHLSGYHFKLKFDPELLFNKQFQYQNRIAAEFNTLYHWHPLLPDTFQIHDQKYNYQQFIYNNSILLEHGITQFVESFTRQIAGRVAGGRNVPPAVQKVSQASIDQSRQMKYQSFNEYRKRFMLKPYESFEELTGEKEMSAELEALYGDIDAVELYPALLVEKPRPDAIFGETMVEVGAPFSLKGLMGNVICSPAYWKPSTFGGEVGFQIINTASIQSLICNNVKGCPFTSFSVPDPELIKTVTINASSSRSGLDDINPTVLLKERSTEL
The assay can be described thus: Cyclooxygenase inhibition, commercial kit (COX-2). The settings on record: read-out: COX-2% Inhibition. The class given is biochemical. The procedure: Enzyme and samples (50 μg PEE/mL) were pre-incubated during 10 min and then arachidonic acid was added. The reaction was conducted for exactly 2 min at 37 °C and halted in boiling water for 5 min. […] Results were expressed as a percentage of inhibition of PGF2α production.

Another assay concerns the target T3, sPLA2 (Homo sapiens, UniProt P39877).
T3 construct: purchased Cayman Chemical 10004883
T3 sequence (P39877 21-138): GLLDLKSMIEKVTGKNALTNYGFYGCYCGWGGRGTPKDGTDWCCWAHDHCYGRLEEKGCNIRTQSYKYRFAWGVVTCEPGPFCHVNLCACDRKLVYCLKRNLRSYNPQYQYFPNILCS
As to the kind of experiment: Secretory phospholipase A2 inhibition, colorimetric kit. Type of assay: biochemical. Particulars: read-out: sPLA2 % Inhibition. As to the method:
The sPLA2 inhibitory activity was determined using a colorimetric kit (10004883, Cayman Chemical). Enzyme and samples (200–100 μg PEE/mL) were mixed, and then the substrate (diheptanoyl Thio-PC) was added, and incubated during 15 min at 25 °C. Then, DTNB (Ellman’s reagent) was added and absorbance was read at 415 nm. Results are expressed as a percentage of inhibition or IC50 (μg PEE/mL). Ursolic acid was used as the reference compound [37].

A further assay has as its target porcine pancreas lipase. The arrangement: method as in PMID 28454959. Particulars: commercial polyphenol standards; cited from earlier work.

Structures are written as SMILES.

For the compound `O.Oc1cc(O)c2c(c1)O[C@H](c1ccc(O)c(O)c1)[C@@H](O)C2` [Catechin], the FRAP in assay [1] is reported as 5.4 ± 0.1 mmol TE/g PEE. Also, the CUPRAC in assay [2] came to 13.4 ± 0.3 mmol TE/g PEE. The “DPPH SC50” value in “DPPH discoloration assay” (Table 1, fruit PEEs) worked out at 11.4 ± 1.6 µg/mL; in the assay “DPPH discoloration assay” (Table 4, Diego de Almagro PEE and Sephadex LH-20 fractions) it was 11.4 ± 1.6 µg/mL. Besides, the “O2 Scavenging SC50” value in assay [3] amounted to 8.7 ± 0.1 µg/mL.
For `CS(=O)(=O)Nc1ccc([N+](=O)[O-])cc1Oc1ccccc1` [Nimesulide], the inhibition at 50 µg/mL at COX-1 and at COX-2 was 100% throughout.
Turning to `C[C@H]1[C@H](C)CC[C@]2(C(=O)O)CC[C@]3(C)C(=CC[C@@H]4[C@@]5(C)CC[C@H](O)C(C)(C)[C@@H]5CC[C@]43C)[C@H]12` [Ursolic acid], the inhibition at 50 µg/mL on sPLA2 is 26.7 ± 0.7%.
Turning to `O=C(O[C@@H]1Cc2c(O)cc(O)cc2O[C@@H]1c1cc(O)c(O)c(O)c1)c1cc(O)c(O)c(O)c1` [epigallocatechin gallate], the half-inhibitory concentration (IC50) on porcine pancreas lipase is 391 µM.
As for `Oc1cc(O)c2c(c1)O[C@H](c1cc(O)c(O)c(O)c1)[C@H](O)C2` [epigallocatechin], at porcine pancreas lipase, the IC50 is 237 µM.
For the compound `O=C(O)c1cc(O)c(O)c(O)c1` [gallic acid], the IC50 at porcine pancreas lipase is 387 µM.

(Values after publication PMC6151650, “The Native Fruit Geoffroea decorticans from Arid Northern Chile: Phenolic Composition, Antioxidant Activities and In Vitro Inhibition of Pro-Inflammatory and Metabolic Syndrome-Associated Enzymes” (Molecules : A Journal of Synthetic Chemistry and Natural …, 2017).)
